Reference: ChEMBL document CHEMBL3045819, “Potent limonoid insect antifeedant from Melia azedarach” (2002)

Experiments:
Format in all cases: functional
[1] = tested on: Spodoptera eridania; test: Antifeedant activity against larvae of Spodoptera eridania in Cucurbita maxima leaves at 0.25 ug/cm2 after 24 hr by leaf disk choice test
[2] = tested on: Spodoptera eridania; test: Antifeedant activity against larvae of Spodoptera eridania in Cucurbita maxima leaves at 0.5 ug/cm2 after 24 hr by leaf disk choice test
[3] = tested on: Spodoptera eridania; test: Antifeedant activity against larvae of Spodoptera eridania in Cucurbita maxima leaves at 1 ug/cm2 after 24 hr by leaf disk choice test
[4] = tested on: Spodoptera eridania; test: Antifeedant activity against larvae of Spodoptera eridania in Cucurbita maxima leaves at 4 ug/cm2 after 24 hr by leaf disk choice test
[5] = tested on: Epilachna; test: Antifeedant activity against larvae of Epilachna paenulata in Cucurbita maxima leaves at 0.5 ug/cm2 after 24 hr by leaf disc choice test
[6] = tested on: Epilachna; test: Antifeedant activity against larvae of Epilachna paenulata in Cucurbita maxima leaves at 1 ug/cm2 after 24 hr by leaf disc choice test
[7] = tested on: Epilachna; test: Antifeedant activity against larvae of Epilachna paenulata in Cucurbita maxima leaves at 4 ug/cm2 after 24 hr by leaf disc choice test
[8] = tested on: Spodoptera eridania; test: Antifeedant activity against larvae of Spodoptera eridania in Cucurbita maxima leaves at 10 ug/cm2 after 24 hr by leaf disk choice test
[9] = tested on: Spodoptera eridania; test: Antifeedant activity against larvae of Spodoptera eridania in Cucurbita maxima leaves at 14 ug/cm2 after 24 hr by leaf disk choice test
[10] = tested on: Epilachna; test: Antifeedant activity against larvae of Epilachna paenulata in Cucurbita maxima leaves at 8 ug/cm2 after 24 hr by leaf disc choice test
[11] = tested on: Epilachna; test: Antifeedant activity against larvae of Epilachna paenulata in Cucurbita maxima leaves at 10 ug/cm2 after 24 hr by leaf disc choice test

## CC(=O)O[C@@H]1C[C@H](O)[C@@]23CO[C@H](O)[C@]1(C)[C@@H]2C[C@@H](O)[C@]1(C)[C@@H]3C(=O)[C@H](O)[C@@]2(C)[C@H](c3ccoc3)C[C@H]3O[C@@]321 [12-HYDROXYAMOORASTATIN]
[1]
  AFI: 35.5%
[2]
  AFI: 57.5%
[3]
  AFI: 91.2%
[4]
  AFI: 95.5%
[5]
  AFI: 36.4%
[6]
  AFI: 52.1%
[7]
  AFI: 96.1%

## C/C=C(\C)C(=O)O[C@H]1C[C@@H](OC(C)=O)[C@@]2(C(=O)OC)CO[C@H]3[C@@H](O)[C@@](C)([C@]45O[C@@]4(C)[C@@H]4C[C@H]5O[C@@H]5OC=C[C@@]54O)[C@H]4[C@]1(CO[C@]4(O)C(=O)OC)[C@@H]32 [AZADIRACHTIN A]
[1]
  AFI: 57.3%
[2]
  AFI: 91.2%
[3]
  AFI: 94.2%
[4]
  AFI: 94%
[5]
  AFI: 35.7%
[6]
  AFI: 62.2%
[7]
  AFI: 97.6%

## CC(=O)O[C@@H]1C[C@H](O)[C@@]23CO[C@@H](O)[C@]1(C)[C@@H]2C[C@@H](O)[C@]1(C)[C@@H]3C(=O)[C@H](OC(C)=O)[C@@]2(C)[C@H](c3ccoc3)C[C@H]3O[C@]321 [TOOSENDANIN]
[1]
  AFI: 45.8%
[2]
  AFI: 58.7%
[3]
  AFI: 65.1%
[4]
  AFI: 71.8%
[8]
  AFI: 79.3%
[9]
  AFI: 87.8%
[7]
  AFI: 54.8%
[10]
  AFI: 78.2%
[11]
  AFI: 90.7%
